{
  "source": "patent US20230277603A1",
  "about": "“VEILLONELLA PARVULA STRAIN AS AN ORAL THERAPY FOR NEUROINFLAMMATORY DISEASES” (Evelo Biosciences, Inc., priority 2020, published 2023)",
  "tested_on": "relapse-remitting EAE model induced with PLP139-151 peptide in SJL mice",
  "test": "SJL EAE model, therapeutic treatment (Example 3), clinical results",
  "assay_type": "in vivo",
  "conditions": "for MMS ± SD: Day 0-42; for MMS ± SD / Incidence of relapse (%) / MMS of relapse period ± SD (Days 18-42) / End % body weight ± SD / End score ± SD: PO QD day ~11 - day 42; for MMS until Day 17 ± SD: acute phase, PO QD from day ~11; for End % body weight ± SD / End score ± SD: end of study",
  "procedure": "The SJL EAE model is a Th17/Th1-mediated mouse model of relapsing-remitting neuroinflammatory disease that is induced via immunization with proteolipid protein (PLP), a major protein constituent of CNS myelin. Disease pathology is due to infiltration of immune cells in the CNS leading to decreased motor function and paralysis. Briefly, in this model mice are injected subcutaneously with an emulsion of PLP-peptide plus CFA and intraperitoneally with pertussis toxin on day 0. Acute neuroinflammatory disease develops between day 10 to day 16, and the relapsing-remitting disease phase occurs from day 20 to day 45. Mice are dosed daily from the day of sensitization through the end of the study by oral gavage. In a therapeutic model, dosing of the mice begins on the second day of disease (~ Day 11 after disease induction). Mice are scored daily for a decrease in motor function and complete paralysis in the tail and limbs. Histopathology is carried out to score the frequency of inflammatory infiltrates and demyelination in the spinal cord.\nThe model details and read-outs, and methods are described below. Treatment began two days after disease onset, around day ~11 (mice were enrolled on the second day of disease for each mouse).\nExperimental Autoimmune Encephalomyelitis. Female SJL mice (8-10 weeks old) were subcutaneously injected at four sites with myelin proteolipid protein (PLP) 139-151 in CFA emulsion (0.05 mL/injection site; ~0.5 mg PLP PLP139-151/mL; Hooke Laboratories; EK-2120). Following immunization, EAE induction was completed by intraperitoneal injections of pertussis toxin (6 µg/mL; 0.1 mL/mouse) within 2 hours of immunization. Mice were randomized into groups and monitored for EAE clinical score over the course of 42 days. Disease progression was scored blinded of treatment or prior measurements. Disease severity was scored using standard EAE criteria: 0 (normal); 1 (loss of tail tone); 2 (hind limb weakness); 3 (hind limb paralysis); 4 (hind limb paralysis and forelimb paralysis or weakness); 5 (morbidity/death). Mice were observed daily for clinical symptoms.\n• Vehicle (anaerobic sucrose buffer) PO QD day ~11 - day 42 • G.I. Strain A 10 mg/dose PO QD day ~11 - day 42 • Fingolimod, 1 mg/kg PO QD day ~11 - day 42 • Fingolimod, 0.1 mg/kg PO QD day ~11 - day 42\nG.I. Strain A was prepared as a lyophilized powder and was gamma irradiated prior to use.",
  "key": {"[1]": {"conditions": "Strain A 10 mg/dose, Fingolimod 1 mg/kg"}},
  "data": [
    {"smiles": "CCCCCCCCc1ccc(CCC(N)(CO)CO)cc1", "note": "[Fingolimod]", "values": [
      {"measurement": "MMS ± SD", "setting": "Fingolimod 0.1 mg/kg", "result": "3.20±0.70"},
      {"measurement": "MMS ± SD", "setting": "[1]", "result": "3.13±0.52"},
      {"measurement": "Incidence of relapse (%)", "setting": "Fingolimod 0.1 mg/kg", "result": 28.6, "unit": "%"},
      {"measurement": "MMS of relapse period ± SD (Days 18-42)", "setting": "Fingolimod 0.1 mg/kg", "result": "1.77±1.53"},
      {"measurement": "Incidence of relapse (%)", "setting": "[1]", "result": 0, "unit": "%"},
      {"measurement": "MMS of relapse period ± SD (Days 18-42)", "setting": "[1]", "result": "0.83±0.67"},
      {"measurement": "MMS until Day 17 ± SD", "setting": "Fingolimod 0.1 mg/kg", "result": "3.13 ± 0.69"},
      {"measurement": "MMS until Day 17 ± SD", "setting": "[1]", "result": "3.13±0.52"},
      {"measurement": "End % body weight ± SD", "setting": "Fingolimod 0.1 mg/kg", "result": "95.2±11.1", "unit": "%"},
      {"measurement": "End score ± SD", "setting": "Fingolimod 0.1 mg/kg", "result": "0.97±1.45"},
      {"measurement": "End % body weight ± SD", "setting": "[1]", "result": "101.8±12.0", "unit": "%"},
      {"measurement": "End score ± SD", "setting": "[1]", "result": "0.10±0.21"}
    ]}
  ]
}
